Measurements reported in patent US5484934A, “Isothiazole derivatives, a process for production thereof and uses thereof” (Nihon Nohyaku Co., Ltd., priority 1992, dated 1996).

Legend:
[1] = system: Pseudoperonospora cubensis; test: Controlling effect on cucumber Downy mildew; format: in vivo; settings: 168 h, 200 ppm spray, inoculation after 24 hours, read-out: Controlling effect Pc (cucumber downy mildew)
Botrytis cinerea = test: Controlling effect (curing effect) on cucumber gray mold; format: in vivo; settings: 72 h, immersion of inoculated cotyledons, 15° C., read-out: Controlling effect Bc (cucumber gray mold)
Experimental: Controlling effect (curing effect) on cucumber gray mold The cotyledons of potted cucumber plants at the 1 leaf stage were cut off and each of them was inoculated with a mycelial tuft of gray mold fungus (Botrytis cinerea) cultured on PSA medium. After having been placed in a moist chamber at 15° C. for 24 hours, the cotyledons were immersed in a 200 ppm liquid chemical containing each compound of the present invention as active ingredient. […]

Chaetomium globosum = test: Inhibition of hypha growth on malt extract agar, Chaetomium globosum; settings: read-out: Controlling effect (growth inhibition rate) CHG
Experimental: (§1) Each preparation to be tested was added to malt extract agar medium to adjust the concentration to 50 ppm, and the resulting mixture was dispensed into Petri dishes. As an inoculum, a prepared mycerial tuft of each test fungus was punched out together with agar by means of a 4-mm-diameter cork borer and inoculated on medium. The incubation temperature was adjusted to 28±2° .C (or 18±2° C. in the case of Selupula lacrymas).
(§2) The diameter of mycerial tuft was measured 2 to 10 days after the inoculation, and the inhibition rate of hypha growth (the following equation) was measured.
(§3) The controlling effect was evaluated according to the following criterion.

Alternaria mali = test: Inhibition of hypha growth on malt extract agar, Alternaria mali; settings: read-out: Controlling effect (growth inhibition rate) ALM
Experimental: as §1, §2, §3

Phytophthora infestants = test: whole plant or invertebrate; format: in vivo; settings: 168 h; read-out: Controlling effect Pi (tomato late blight)
Tyromyces palustris = test: Inhibition of hypha growth on malt extract agar, Tyromyces palustris; settings: read-out: Controlling effect (growth inhibition rate) TYP
Experimental: as §1, §2

Pyricularia oryzae = test: whole plant or invertebrate; format: in vivo; settings: 168 h, read-out: Controlling effect Ps (rice blast)
[2] = system: Cladosporium cladosporioides; test: Inhibition of hypha growth on malt extract agar, Cladosporium cladosporioides; settings: read-out: Controlling effect (growth inhibition rate) CLC
Experimental: as §1, §2

Aspergillus niger = test: Inhibition of hypha growth on malt extract agar, Aspergillus niger; settings: read-out: Controlling effect (growth inhibition rate) ASN
Experimental: as §1, §2, §3

Rhizopus nigricans = test: Inhibition of hypha growth on malt extract agar, Rhizopus nigricans; settings: Rhizopus stolonifer, read-out: Controlling effect (growth inhibition rate) RHS
Experimental: as §1, §2

Trichoderma viride = test: Inhibition of hypha growth on malt extract agar, Trichoderma viride; settings: read-out: Controlling effect (growth inhibition rate) TRV
Experimental: as §1, §2

Fusarium oxysporum = test: Inhibition of hypha growth on malt extract agar, Fusarium oxysporum; settings: read-out: Controlling effect (growth inhibition rate) FUO
Experimental: as §1, §2, §3

Serpula lacrymans = test: Inhibition of hypha growth on malt extract agar, Serpula lacrymans; settings: read-out: Controlling effect (growth inhibition rate) SEL
Experimental: as §1, §2

Coriolus versicolor = test: Inhibition of hypha growth on malt extract agar, Coriolus versicolor; format: cell-based; settings: Trametes versicolor, 28±2° C., 2 to 10 days, read-out: Controlling effect (growth inhibition rate) COV

Compound | pest or weed control at 200 ppm [1] [%] | pest or weed control at 200 ppm (Botrytis cinerea) [%] | inhibition at 50 ppm (Chaetomium globosum) [%] | inhibition at 50 ppm (Alternaria mali) [%] | pest or weed control at 200 ppm (Phytophthora infestants) [%] | inhibition at 50 ppm (Tyromyces palustris) [%] | pest or weed control at 200 ppm (Pyricularia oryzae) [%] | inhibition at 50 ppm [2] [%] | inhibition at 50 ppm (Aspergillus niger) [%] | inhibition at 50 ppm (Rhizopus nigricans) [%] | inhibition at 50 ppm (Trichoderma viride) [%] | inhibition at 50 ppm (Fusarium oxysporum) [%] | inhibition at 50 ppm (Serpula lacrymans) [%] | inhibition at 50 ppm (Coriolus versicolor) [%]
CC(C)Oc1nsc(S(C)(=O)=O)c1C#N [Compound 50] | 95 to 100 | 0 to 59 | 100 | 100 | 80 to 94 | 100 | 80 to 94 | 100 | 100 | 100 | 100 | 100 | 100 | 100
COc1nsc([S+](C)[O-])c1C#N (stereo not drawn) [Compound 15, 3-methoxy-4-cyano-5-methylsulfoxyisothiazole] | 95 to 100 | 60 to 79 | 100 | 100 | 95 to 100 | 100 | 95 to 100 | 100 | 100 | 100 | 100 | 100 | 100 | 100
N#Cc1c(O)nsc1S(=O)(=O)c1ccccc1 [Compound 1, 3-hydroxy-4-cyano-5-phenylsulfonylisothiazole] | 60 to 79 | 0 to 59 | 85 to 99 | 55 to 84 | 60 to 79 | 55 to 84 | 80 to 94 | 55 to 84 | 55 to 84 | 85 to 99 | 85 to 99 | 55 to 84 | 85 to 99 | 85 to 99
COc1nsc(S(=O)(=O)c2ccccc2)c1C#N [Compound 89, 3-methoxy-4-cyano-5-phenylsulfonylisothiazole] | 80 to 94 | 60 to 79 | 100 | 100 | 95 to 100 | 100 | 95 to 100 | 100 | 100 | 100 | 100 | 100 | 100 | 100
C#CCOc1nsc(S(=O)(=O)CCOCC)c1C#N [Compound 82] | 95 to 100 | 60 to 79 | 100 | 100 | 95 to 100 | 100 | 95 to 100 | 100 | 100 | 100 | 100 | 100 | 100 | 100
CS(=O)(=O)c1snc(OC(F)F)c1C#N [Compound 24, 3-difluoromethoxy-4-cyano-5-methylsulfonylisothiazole] | 95 to 100 | 0 to 59 | 55 to 84 | 100 | 95 to 100 | 100 | 95 to 100 | 100 | 100 | 85 to 99 | 100 | 85 to 99 | 100 | 100
